In paper PMC5554537 (Frontiers in Pharmacology, 2017):
Read-outs that look alike come from different tables or passages of the source.

Legend:
[1] = i.p. SN30000 186 mg/kg
Protocol: M18 was quantified by absorbance detection with reference to an external standard calibration curve.
Concentration-time data were analyzed by non-compartmental analysis using Phoenix WinNonlin (ver 6.4, Build 6.4.0768 Pharsight, United States); all AUC values were extrapolated to infinity using the linear trapezoidal rule.
SN30000, M14 and M13 were quantified by LC-MS/MS using stable isotope internal standards, while M18 was quantified by absorbance detection using external standard calibration curves.

[2] = Compartmental plasma PK model; type: in vivo; design: Absorption rate constant Ka: unit not given here
Text: This model, shown schematically in Figure 9, is based on total (free + bound) plasma concentrations; the major metabolites (M14, M13, and M18) are explicit and clearance of SN30000 occurs only by reduction to M14. The i.p. bioavailability of SN30000 was modeled with an additional term for loss from the peritoneal compartment (kloss).

HCT116 cells = experiment: Antiproliferative potency, 4 h exposure, sulforhodamine B; type: cell-based, human; details: Homo sapiens, HCT-116, 4 h, HCT116, 4 h exposure
Protocol: Antiproliferative potency of SN30000 and its major metabolites following 4 h exposure of HCT116 cells under aerobic or anoxic conditions. […]
a HCT116 cells, originally from ATCC, were authenticated by short tandem repeat profiling and confir med mycoplasma-free by PCR/ELISA assay . Cells were passaged in Alpha MEM with 5% foetal bovine serum without antibiotics. In vitro cytotoxicity of SN30000 and metabolites was measured as the inhibition of cell proliferation as described previously (Gu et al., 2009). Briefly, cells were exposed to compounds for 4 h under aerobic (20% O2) or anoxic (Bactron anaerobic chamber) conditions and then grown in an aerobic 5% CO 2 incubator for 5 d before staining with sulforhodamine B. IC50 values were deter mined by interpolation (nonlinear regression to the standard Hill equation) as the drug concentration reducing staining to 50% of controls on the same plate. b Values are mean ± SEM for the numb er of independent experiments shown in parentheses.

NIH-III mice = experiment: Core body (rectal) temperature and acute clinical signs after dosing; type: in vivo
[3] = Stability in mouse plasma (QC samples); type: physicochemical
Text: using octa-deuterated internal standards of SN30000, M13 and M14 synthesised as previously reported (Wang et al., 2012). Intra- and inter-day precision (expressed as relative standard deviation (RSD) and accuracy (expressed as percentage of the nominal value) were deter mined by analy sis of replicates (n=6) of low and high quality control (QC) samples on three different days. The lower limit of quantitation (LLOQ) was defined as the lowest concentration providing RSD and accuracy < 20%. Recovery from plasma and liver ho mogenates was tested at the three QC levels. The recoveries were evaluated by comparing extracted samples with blank extracted solutions spiked with analytes of the same amount.
Matrix effects, defined as the change in response due to the presence of other substances in the samples, were evaluated by comparing the analytes diluted into the blank plasma or liver extracted solution with that of the same stock solutions diluted in water. Three different concentration levels (low, medium and high QC) were evaluated by analysing three samples at each level. Accuracy , precision, recovery and matrix effects were all acceptable over the concentration ranges evaluated for plas ma (Supplementary Table 1) and for liver homogenates (Supplementary Table 2).
Stability of the analytes in mouse plasma (Supplementary Table 3) or liver homogenate (Supplementary Table 4) was confirmed during holding of QC samples on ice for up to 2 h under nor mal laboratory lighting, although there was a trend towards loss of SN30000 in plasma samples held in clear microcentrifuge tubes which may reflect the known photosensitivity of the compound (Gu et al., 2014). This loss was reduced by use of red microcentrifuge tubes, and eliminated by black tubes. Stability in both matrices was also confir med for one month storage at -80°C and for three freeze-thaw cycles, while MeOH-deproteinised samples w ere stable for 12 h at 4°C in the autosampler (Supplementary Tables

[4] = HT29 tumour, tumour-bearing mice
[5] = liver, HT29 tumour-bearing mice
[6] = plasma deproteinised in 3 vol MeOH, 12 h autosampler at 4°C, nominal SN30000 0.5, M14 0.25, M13 0.1 µM
[7] = plasma deproteinised in 3 vol MeOH, 12 h autosampler at 4°C, nominal SN30000 5, M14 2.5, M13 1 µM
[8] = plasma deproteinised in 3 vol MeOH, 12 h autosampler at 4°C, nominal SN30000 50, M14 25, M13 10 µM
[9] = plasma, 1 month at -80°C, nominal SN30000 5, M14 2.5, M13 1 µM
[10] = plasma, 1 month at -80°C, nominal SN30000 50, M14 25, M13 10 µM
[11] = plasma, 1 h on ice, black vial, nominal SN30000 0.5, M14 0.25, M13 0.1 µM
[12] = plasma, 1 h on ice, black vial, nominal SN30000 5, M14 2.5, M13 1 µM
[13] = plasma, 1 h on ice, black vial, nominal SN30000 50, M14 25, M13 10 µM
[14] = plasma, 1 h on ice, clear vial, nominal SN30000 0.5, M14 0.25, M13 0.1 µM
[15] = plasma, 1 h on ice, clear vial, nominal SN30000 5, M14 2.5, M13 1 µM
[16] = plasma, 1 h on ice, clear vial, nominal SN30000 50, M14 25, M13 10 µM
[17] = plasma, 1 h on ice, red vial, nominal SN30000 0.5, M14 0.25, M13 0.1 µM
[18] = plasma, 1 h on ice, red vial, nominal SN30000 5, M14 2.5, M13 1 µM
[19] = plasma, 1 h on ice, red vial, nominal SN30000 50, M14 25, M13 10 µM
[20] = plasma, 2 h on ice, black vial, nominal SN30000 0.5, M14 0.25, M13 0.1 µM
[21] = plasma, 2 h on ice, black vial, nominal SN30000 5, M14 2.5, M13 1 µM
[22] = plasma, 2 h on ice, black vial, nominal SN30000 50, M14 25, M13 10 µM
[23] = plasma, 2 h on ice, clear vial, nominal SN30000 0.5, M14 0.25, M13 0.1 µM
[24] = plasma, 2 h on ice, clear vial, nominal SN30000 5, M14 2.5, M13 1 µM
[25] = plasma, 2 h on ice, clear vial, nominal SN30000 50, M14 25, M13 10 µM
[26] = plasma, 2 h on ice, red vial, nominal SN30000 0.5, M14 0.25, M13 0.1 µM
[27] = plasma, 2 h on ice, red vial, nominal SN30000 5, M14 2.5, M13 1 µM
[28] = plasma, 2 h on ice, red vial, nominal SN30000 50, M14 25, M13 10 µM
[29] = plasma, three freeze-thaw cycles, nominal SN30000 0.5, M14 0.25, M13 0.1 µM
[30] = plasma, three freeze-thaw cycles, nominal SN30000 5, M14 2.5, M13 1 µM
[31] = plasma, three freeze-thaw cycles, nominal SN30000 50, M14 25, M13 10 µM

With [O-][n+]1nc(CCCN2CCOCC2)[n+]([O-])c2cc3c(cc21)CCC3 [SN30000, 3-(3-Morpholinopropyl)-7,8-dihydro-6H-indeno[5,6-e][1,2,4]triazine 1,4-dioxide] the “AUC (extrapolated to infinity)” value [1, 4] was 111 µmol·h/kg, the Cmax [1, 4] was 69.9 ± 12.1 µmol/kg and the “AUC (extrapolated to infinity)” value ([1]; brain, non-tumour-bearing mice) was 158 µmol·h/kg. For the same molecule, the Cmax ([1]; brain, non-tumour-bearing mice) was 217 ± 12 µmol/kg, the “AUC (extrapolated to infinity)” value [1, 5] was 164 µmol·h/kg and the Cmax [1, 5] was 172 ± 8 µmol/kg. For the same molecule, the “AUC (extrapolated to infinity)” value ([1]; liver, non-tumour-bearing mice) was 147 µmol·h/kg, the Cmax ([1]; liver, non-tumour-bearing mice) was 164 ± 38 µmol/kg and the “AUC (extrapolated to infinity)” value ([1]; plasma, HT29 tumour-bearing mice) was 159 µmol·h/kg. For the same molecule, the “AUC (extrapolated to infinity)” value ([1]; plasma, non-tumour-bearing mice) was 156 µmol·h/kg, the “Central compartment volume V1” value ([2]; 1-Oxide and Nor-oxide values fixed) was 1.95 L/kg and the “Temperature effect (N) on Kloss for i.p. SN30000” value ([2]; (1+ΔT)^-N) was 2.80. For the same molecule, the “Intercompartmental clearance Clic” value ([2]; NIH-III, mouse, in vivo) was 1.12 L/h/kg, the “Peripheral compartment volume V2” value ([2]; NIH-III, mouse, in vivo) was 0.64 L/kg and the “Approximate % suppression per °C of Kloss for i.p. SN30000” value ([2]; NIH-III, mouse, in vivo, ip) was roughly 86%. The clearance ([2]; NIH-III, mouse, in vivo, model clearance) was 189 mL/min/kg, the “Absorption rate constant Ka” value ([2]; i.p. dosing compartment, SN30000 value fixed) was 60 and the “Kloss for i.p. SN30000” value ([2]; loss from peritoneal compartment) was 67.48 L/h. For the same molecule, the IC50 (HCT116 cells; aerobic (20% O2)) was 148 ± 20 µM, the IC50 (HCT116 cells; anoxic) was 1.7 ± 0.4 µM and the “Drop in rectal temperature at nadir, below controls” value (NIH-III mice; i.p. MTD dose (186 mg/kg)) was roughly 8 °C. For the same molecule, the “Time of temperature nadir” value (NIH-III mice; i.p. MTD dose (186 mg/kg)) was “approximately 30 min”, the “Initial rate of temperature loss (rectum)” value (NIH-III mice; i.p. SN30000 186 mg/kg, TPZ 31.7 mg/kg, M14 135 mg/kg) was 0.52 °C/min and the Bias [3, 6] was -0.12%. The Measured conc [3, 6] was 0.50 µM, the Bias [3, 7] was -0.22% and the Measured conc [3, 7] was 4.99 µM. It also gave a Bias [3, 8] of 7.93%, a Measured conc [3, 8] of 53.97 µM and a Measured conc ([3]; plasma, 1 month at -80°C, nominal SN30000 0.5, M14 0.25, M13 0.1 µM) of 0.48 µM. For the same molecule, the Bias [3, 9] was 1.44%, the Measured conc [3, 9] was 4.92 µM and the Bias [3, 10] was 2.04%. For the same molecule, the Measured conc [3, 10] was 53.90 µM, the Bias [3, 11] was -0.80% and the Measured conc [3, 11] was 0.50 µM. It also gave a Bias [3, 12] of -7.17%, a Measured conc [3, 12] of 4.64 µM and a Bias [3, 13] of 5.03%. For the same molecule, the Measured conc [3, 13] was 52.5 µM, the Bias [3, 14] was -7.83% and the Measured conc [3, 14] was 0.46 µM. The Bias [3, 15] was -7.91%, the Measured conc [3, 15] was 4.60 µM and the Bias [3, 16] was -7.21%. The Measured conc [3, 16] was 46.39 µM, the Bias [3, 17] was -3.33% and the Measured conc [3, 17] was 0.48 µM. The Bias [3, 18] was -7.29%, the Measured conc [3, 18] was 4.64 µM and the Bias [3, 19] was -4.85%. The Measured conc [3, 19] was 47.57 µM, the Bias [3, 20] was 1.31% and the Measured conc [3, 20] was 0.51 µM. For the same molecule, the Bias [3, 21] was 0.11%, the Measured conc [3, 21] was 5.01 µM and the Bias [3, 22] was 2.32%. For the same molecule, the Measured conc [3, 22] was 51.16 µM, the Bias [3, 23] was -14.4% and the Measured conc [3, 23] was 0.43 µM. For the same molecule, the Bias [3, 24] was -12.3%, the Measured conc [3, 24] was 4.38 µM and the Bias [3, 25] was -14.9%. It also gave a Measured conc [3, 25] of 42.53 µM, a Bias [3, 26] of -10.09% and a Measured conc [3, 26] of 0.45 µM. For the same molecule, the Bias [3, 27] was -12.57%, the Measured conc [3, 27] was 4.37 µM and the Bias [3, 28] was -8.13%. For the same molecule, the Measured conc [3, 28] was 45.94 µM, the Bias [3, 29] was 0.56% and the Measured conc [3, 29] was 0.50 µM. It also gave a Bias [3, 30] of -2.87%, a Measured conc [3, 30] of 4.86 µM and a Bias [3, 31] of 6.72%. It also gave a Measured conc [3, 31] of 53.36 µM.
